# Experimental data taken from PMC9804387, “Substrate Peptidomimetic Inhibitors of P. falciparum Plasmepsin X with Potent Antimalarial Activity” (Chemmedchem, 2022).
# Where a name gives a salt, the structure may show the parent alone.
# Assays:
# cathepsin D = biological target: T1, cathepsin D (Homo sapiens, UniProt P07339); assay: Cathepsin D FRET protease assay; type: biochemical; conditions: mean and SD of 4 replicate FRET experiments, 37 °C; highest concentration tested 11 μM
# T1 construct: purchased Athens Research 16-12-030104
# T1 sequence (P07339 65-412): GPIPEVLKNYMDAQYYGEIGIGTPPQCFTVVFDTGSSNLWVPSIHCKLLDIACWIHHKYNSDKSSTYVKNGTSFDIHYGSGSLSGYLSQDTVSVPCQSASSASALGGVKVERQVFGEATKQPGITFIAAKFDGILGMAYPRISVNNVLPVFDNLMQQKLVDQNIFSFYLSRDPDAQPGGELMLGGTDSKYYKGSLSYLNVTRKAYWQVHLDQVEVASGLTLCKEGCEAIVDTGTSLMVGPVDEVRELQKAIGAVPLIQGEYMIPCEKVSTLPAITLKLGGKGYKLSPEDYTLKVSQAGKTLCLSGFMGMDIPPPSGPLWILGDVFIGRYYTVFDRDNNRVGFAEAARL
# [1] = system: P. falciparum (Pf) 3D7 parasites; assay: P. falciparum LDH viability assay; type: cell-based; conditions: for EC50: Plasmodium falciparum, 3D7, 72 h, LDH activity, 72 h at 37 °C, mean and SD of 3 independent experiments
# Procedure: P. falciparum LDH Viability Assay. P. falciparum LDH viability assays were performed as previously described.[40] Briefly, a ten‐point 1 : 3‐fold dilution series of the compounds were pre‐dispensed in 384‐well assay plates (Grenier), and RPMI/AlbuMAX growth media inoculated with synchronized ring stage P. falciparum parasites. 10 mM compound stocks were transferred into the assay plates such that the starting concentration was 10 μM. Plates were incubated for 72 h and then frozen at −80 °C overnight. Lactate dehydrogenase (LDH) activity was quantified with APAD by measuring absorbance of NBT at 650 nm. Data were normalized to percent growth inhibition using the positive control of 0.1 % DMSO alone and the negative control of 100 nM chloroquine. Half‐maximal effective concentration (EC50) values were calculated by GraphPad Prism (8.0.2) software using a nonlinear regression four‐parameter fit analysis using a sigmoidal dose response (variable slope).
# recombinant Pv PMV = biological target: T2, recombinant Pv PMV (Plasmodium vivax, UniProt A5K302); assay: PMV FRET protease assay; type: biochemical
# T2 construct: made in house
# T2 sequence (A5K302 35-536): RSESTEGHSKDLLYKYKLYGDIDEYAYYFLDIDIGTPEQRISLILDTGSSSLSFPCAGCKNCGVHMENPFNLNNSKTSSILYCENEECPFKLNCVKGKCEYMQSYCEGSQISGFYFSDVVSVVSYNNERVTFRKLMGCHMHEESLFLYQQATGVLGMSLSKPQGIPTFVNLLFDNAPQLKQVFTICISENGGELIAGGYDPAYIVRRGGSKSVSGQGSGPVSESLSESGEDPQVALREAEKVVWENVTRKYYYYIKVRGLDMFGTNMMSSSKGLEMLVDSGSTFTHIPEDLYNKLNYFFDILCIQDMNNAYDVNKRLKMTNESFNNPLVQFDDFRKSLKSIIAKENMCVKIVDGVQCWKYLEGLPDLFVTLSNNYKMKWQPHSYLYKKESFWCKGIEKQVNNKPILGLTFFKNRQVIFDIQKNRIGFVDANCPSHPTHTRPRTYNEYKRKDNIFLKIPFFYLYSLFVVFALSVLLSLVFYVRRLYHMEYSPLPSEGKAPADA
# Procedure: (§1) FRET Protease Assays. FRET protease assays were performed as previously described.[19, 20, 27, 28] Briefly, ten‐point 1 : 3‐fold dilution series of the compounds were prepared in 384‐well black low volume assay plates (Greiner) using an Echo555 (Labcyte). 10 mM compound stocks were transferred into assay plates such that the starting concentration was 90 μM (Pv PMV assays), 11.25 μM (renin, cathepsin D and BACE‐1 assays) or 100 nM and 10 μM (Pf PMX and Pf PMIX assays). All wells were backfilled to 200 nL DMSO such that the DMSO concentration remained constant across the assay plates (1 % final). All compound potency assays were conducted in 20 μL total volume. For each assay, 10 μL of recombinant enzymes in respective assay buffers (Table S2) were dispensed into compound containing assay plates using a Multidrop‐Combi dispenser and allowed to incubate for 15 min. Recombinant Pf PMX, Pf PMIX and Pv PMV were expressed as previously described,[23, 27, 28] and recombinant human aspartyl proteases were purchased commercially. 10 μL of the fluorogenic peptide substrates incubated at 37 °C for the duration and conditions noted in Table S2. Samples were excited at 340 nm and fluorescence emission measured at 492 nm using an Envision fluorescence plate reader (Perkin‐Elmer). The 0 % inhibition control contained DMSO alone (1 % final) and the 100 % inhibition control was in the absence of enzyme. Half‐maximal inhibitory concentration (IC50) values were calculated by GraphPad Prism (8.0.2) software using a nonlinear regression four‐parameter fit analysis using a sigmoidal dose response (variable slope).
# (§2) Table S2 . P rotease FRET assay conditions.
# (§3) PMX as sa y PMIX PM V assay Renin assay Cathepsin D assay BA CE-1 assay E nzy me prot e as e 0.25 nM pro te a se 6 nM prot e as e q ua nti ty 0.1 nM pro t ea se 1.5 nM pro t ea se 2.5 nM pro t ea se 3 nM (Pro te os #R-001) ( Athe ns Re sea rc h (Sigma #S4195) […]
# (§4) 25mM so di um acetate, 100 mM 25 mM M E S, 25 m M 50 mM Tr is, 100 mM 100 mM so di u m 20 mM so dium Buffer acetate, 0.005% sodium chloride and Tris-HCl, 0.01% N aC l, 0. 1% Bri j-35, acetate 0.02% scetate, 0.05% […]
# (§5) Sub str at e DABCYL- ( DA BC YL ) - DABCYL- DABCYL-(γ- Ab u) - E[E(EDANS)]KPIL […]
# renin = biological target: T3, renin (Homo sapiens, UniProt P00797); assay: Renin FRET protease assay; type: biochemical; conditions: mean and SD of 4 replicate FRET experiments, 37 °C; highest concentration tested 11 μM
# T3 construct: purchased Proteos R-001
# T3 sequence (P00797 67-406): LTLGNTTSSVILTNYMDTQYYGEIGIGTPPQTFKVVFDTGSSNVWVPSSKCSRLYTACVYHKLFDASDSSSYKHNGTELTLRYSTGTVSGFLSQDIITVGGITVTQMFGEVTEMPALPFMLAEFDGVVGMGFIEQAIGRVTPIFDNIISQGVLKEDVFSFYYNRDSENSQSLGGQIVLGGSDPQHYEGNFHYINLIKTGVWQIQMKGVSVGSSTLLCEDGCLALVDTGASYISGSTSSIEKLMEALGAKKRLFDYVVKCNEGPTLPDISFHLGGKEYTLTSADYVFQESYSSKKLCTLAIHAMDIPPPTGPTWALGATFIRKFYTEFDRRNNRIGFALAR
# [2] = system: P. falciparum 3D7 parasites; assay: Asexual stage of arrest assay (Giemsa smears, SYBR green flow cytometry); type: cell-based
# Procedure: Asexual stage of arrest phenotyping. Inhibition of PMX prevents parasites from egressing from the host erythrocyte and arrests asexual stage parasites at the late schizont stage. […] In this assay, highly synchronized asexual ring stage parasites were treated with ten times the EC50 of 38 and 49c (2) and the DMSO vehicle control. The parasite stage of arrest was analyzed by microscopy of Giemsa‐stained blood smears, while parasitemia was quantified by flow cytometry at 12, 24, 36 and 48 hours.
# Stage Arrestment Assay. As previously described,[42] P. falciparum 3D7 parasites were synchronized using a 5 % D‐sorbitol solution prior to assay set‐up. Ring‐staged parasites were adjusted to a final parasitemia and haematocrit of 1 % and 2 %, respectively. Compounds were added to a final concentration of 10×EC50 which were replenished after 24 h. Plates were incubated at 37°C for 48 h and blood smears and 50 μL aliquots in triplicate were harvested every 12 h. Aliquots for flow cytometry analysis were fixed in 0.25 % glutaraldehyde for 30 min at room temperature before being washed in PBS and stored at 4 °C until completion of the assay. To determine parasitemia, fixed blood pellets were stained with 50 μL 2.5×SYBR Green (Invitrogen) for 30 min before being diluted with 180 μL of PBS. 100 000 cells for each sample were counted using an Attune Flow Cytometer (ThermoFisher Scientific). Blood smears were stained with Giemsa and morphology of parasites were examined using a Zeiss Axio Observer microscope.
# recombinant Pf PMIX = biological target: T4, recombinant Pf PMIX (Plasmodium falciparum, UniProt Q8ILG2); assay: PMIX FRET protease assay; type: biochemical, P. falciparum; conditions: mean and SD of 4 replicate FRET experiments, 37 °C
# T4 construct: made in house
# T4 sequence (Q8ILG2 whole entry): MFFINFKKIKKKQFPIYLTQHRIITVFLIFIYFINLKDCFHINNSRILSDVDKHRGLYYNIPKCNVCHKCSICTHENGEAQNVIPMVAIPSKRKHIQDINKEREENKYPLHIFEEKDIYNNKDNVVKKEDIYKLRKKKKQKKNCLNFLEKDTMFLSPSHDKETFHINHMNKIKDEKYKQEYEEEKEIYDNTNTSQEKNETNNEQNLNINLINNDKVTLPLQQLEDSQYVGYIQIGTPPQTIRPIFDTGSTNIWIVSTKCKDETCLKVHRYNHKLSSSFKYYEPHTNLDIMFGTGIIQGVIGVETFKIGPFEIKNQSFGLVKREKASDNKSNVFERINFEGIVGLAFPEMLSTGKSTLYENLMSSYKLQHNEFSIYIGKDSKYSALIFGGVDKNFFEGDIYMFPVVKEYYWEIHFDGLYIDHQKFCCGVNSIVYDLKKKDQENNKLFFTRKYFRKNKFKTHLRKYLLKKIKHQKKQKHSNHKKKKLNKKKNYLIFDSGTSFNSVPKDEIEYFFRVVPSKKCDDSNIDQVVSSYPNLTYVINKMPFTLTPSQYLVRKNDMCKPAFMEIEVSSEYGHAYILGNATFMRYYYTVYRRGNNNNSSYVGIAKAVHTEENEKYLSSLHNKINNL
# Procedure: as §1, §2, §3, §4, §5
SMILES,IC50 (cathepsin D) [µM],EC50 [1] [µM],IC50 (recombinant Pv PMV) [µM],IC50 (renin) [µM],"merozoite egress / stage of arrest ([2]; 49c (2) at 10×EC50 (6 nM), Giemsa smears and flow cytometry, up to 48 h)",IC50 (recombinant Pf PMIX) [µM],fold decrease in parasite activity compared to PMX inhibition ([1]; Pf 3D7 EC50 versus PMX IC50) [fold],"parasitemia / establishment of infection by flow cytometry ([2]; 38 at 10×EC50 (900 nM), SYBR green flow cytometry at 12, 24, 36, 48 h)","asexual parasite stage of arrest ([2]; 38 at 10×EC50 (900 nM), synchronized ring stage parasites, Giemsa smears, up to 48 h)"
"C[C@@H](NC[C@@H](O)[C@H](Cc1ccccc1)NC(=O)c1ccc(C(=O)N2CCN(C)CC2)cc1)c1ccccc1 [Compd 2, reference compound]",> 11,0.001,> 90,> 11,inhibition of merozoite egress,15.1,,,
"C[C@@H](NC[C@@H](O)[C@H](Cc1ccccc1)NC(=O)[C@H](CO)NC(=O)OCc1ccccc1)c1ccccc1 [Compd 38, Cbz‐Ser‐Phe‐HEA‐Bn(CH3)⋅TFA]",> 11,0.09,> 90,> 11,,41,2,unable to establish infection beyond 36 h,arrests asexual parasites at the schizont stage
